Our source for the IC50 values is patent publication US8445510B2, “Fused bicyclic kinase inhibitors” (OSI Pharmaceuticals, LLC, priority 2011, dated 2013).

Test [1] concerns MKN45 cells. As to the kind of experiment: MKN45 cell proliferation assay (CellTiter-Glo). In kind it is cell-based. Particulars: Homo sapiens, MKN-45, 72 h; MKN45 cell line; 3 days incubation; at least duplicate experiments; read-out: Prolif. IC50.
In test [2] the target is T1, RON (Homo sapiens, UniProt Q04912).
T1 sequence (Q04912 913-1400): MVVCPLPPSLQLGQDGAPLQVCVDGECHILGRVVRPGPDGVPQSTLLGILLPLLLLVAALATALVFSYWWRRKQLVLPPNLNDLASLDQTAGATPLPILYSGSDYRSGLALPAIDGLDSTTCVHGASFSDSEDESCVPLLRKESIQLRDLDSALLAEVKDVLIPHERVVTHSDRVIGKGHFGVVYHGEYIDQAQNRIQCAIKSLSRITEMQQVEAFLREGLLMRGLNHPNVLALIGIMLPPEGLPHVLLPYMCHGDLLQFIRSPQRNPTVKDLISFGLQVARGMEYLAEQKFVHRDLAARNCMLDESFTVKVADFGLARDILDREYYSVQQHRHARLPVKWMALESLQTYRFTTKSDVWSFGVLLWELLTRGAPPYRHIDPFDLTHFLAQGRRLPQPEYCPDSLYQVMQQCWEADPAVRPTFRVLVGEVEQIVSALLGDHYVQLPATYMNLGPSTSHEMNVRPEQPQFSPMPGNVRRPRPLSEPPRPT
The experiment in a line: sfRON cell mechanistic assay (HeLa), phosphorylated RON ELISA. Particulars: HeLa cells transfected with sfRON; inhibition of phosphorylated RON; four hours incubation; at least duplicate experiments; read-out: sfRON mech IC50. In kind it is cell-based. A digest of the protocol: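 HeLa cells transiently transfected with sfRON plasmid, then exposed 4 h at 37 °C to a 6-point compound series (typically 10 μM to 3 nM, 0.5% DMSO). Phospho-RON (pY1238/1239) in lysates measured by sandwich ELISA with luminescence. IC50 from 4-parameter fit of percent-of-DMSO-control data, at least duplicate runs.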
In general terms: ELISA stands for enzyme-linked immunosorbent assay.

Broadly, the IC50 is the concentration that gives 50% inhibition. For `COc1ccc(F)c(Cl)c1[C@@H](C)c1c[nH]c2ncc(-c3cnn([C@H]4CC[C@H](C(N)=O)CC4)c3C)cc12` [Example 18, trans-4-(4-{3-[(1S)-1-(2-chloro-3-fluoro-6-methoxyphenyl)ethyl]-1H-pyrrolo[2,3-b]pyridin-5-yl}-5-methyl-1H-pyrazol-1-yl)cyclohexanecarboxamide], the IC50 in test [1] is no more than 0.05 µM; in test [2], 0.2 to 1 µM.

On to `COc1ccc(F)c(Cl)c1[C@@H](C)c1c[nH]c2ncc(-c3c(C)nn(C)c3Cl)cc12` [Example 63, 5-(5-Chloro-1,3-dimethyl-1H-pyrazol-4-yl)-3-[(1S)-1-(2-chloro-3-fluoro-6-methoxyphenyl)ethyl]-1H-pyrrolo[2,3-b]pyridine], for which the IC50 in test [1] is 0.2 to 1 µM; in test [2], greater than 1 µM.

Consider `COc1ccc(F)c(Cl)c1[C@@H](C)c1c[nH]c2ncc(-c3cnn(C[C@H](O)CO)c3C)cc12` [Example 10, (2S)-3-(4-{3-[(1S)-1-(2-Chloro-3-fluoro-6-methoxyphenyl)ethyl]-1H-pyrrolo[2,3-b]pyridin-5-yl}-5-methyl-1H-pyrazol-1-yl)propane-1,2-diol], for which the IC50 is no more than 0.05 µM in test [1] and no more than 0.2 µM in test [2].

Regarding `[2H]C([2H])([2H])Oc1ccc(F)c(Cl)c1[C@@H](C)c1c[nH]c2ncc(-c3cnn([C@H]4CC[C@H](O)CC4)c3C)cc12` [Example 107, trans-4-(4-{3-[(1S)-1-{2-Chloro-3-fluoro-6-[(^2H3)methyloxy]phenyl}ethyl]-1H-pyrrolo[2,3-b]pyridin-5-yl}-5-methyl-1H-pyrazol-1-yl)cyclohexanol], the IC50 is no more than 0.05 µM in test [1] and 0.2 to 1 µM in test [2].

For `COc1ccc(F)c(Cl)c1[C@@H](C)c1c[nH]c2ncc(-c3c(C)nn(CC(C)(C)O)c3C)cc12` [Example 5, 1-(4-{3-[(1S)-1-(2-Chloro-3-fluoro-6-methoxyphenyl)ethyl]-1H-pyrrolo[2,3-b]pyridin-5-yl}-3,5-dimethyl-1H-pyrazol-1-yl)-2-methylpropan-2-ol], the IC50 in test [1] is 0.05 to 0.2 µM; in test [2] it was greater than 1 µM.

Regarding `CCc1c(-c2cnc3[nH]cc([C@H](C)c4c(OC(F)F)ccc(F)c4Cl)c3c2)cnn1[C@H]1CC[C@H](O)CC1` [Example 78, trans-4-[4-(3-{(1S)-1-[2-Chloro-6-(difluoromethoxy)-3-fluorophenyl]ethyl}-1H-pyrrolo[2,3-b]pyridin-5-yl)-5-ethyl-1H-pyrazol-1-yl]cyclohexanol], the half-inhibitory concentration (IC50) is no more than 0.05 µM in test [1] and 0.2 to 1 µM in test [2].

With `Cc1c(-c2cnc3[nH]cc([C@H](C)c4c(OC(F)F)ccc(F)c4Cl)c3c2)cnn1[C@H]1C[C@@](C)(O)C1` [Example 79, cis-3-[4-(3-{(1S)-1-[2-Chloro-6-(difluoromethoxy)-3-fluorophenyl]ethyl}-1H-pyrrolo[2,3-b]pyridin-5-yl)-5-methyl-1H-pyrazol-1-yl]-1-methylcyclobutanol], the IC50 is no more than 0.05 µM in test [1] and 0.2 to 1 µM in test [2].

Consider `COc1ccc(F)c(Cl)c1[C@@H](C)c1c[nH]c2ncc(-c3cnn(C)c3CO)cc12` [Example 44, (4-{3-[(1S)-1-(2-Chloro-3-fluoro-6-methoxyphenyl)ethyl]-1H-pyrrolo[2,3-b]pyridin-5-yl}-1-methyl-1H-pyrazol-5-yl)methanol], for which the IC50 is 0.05 to 0.2 µM in test [1] and greater than 1 µM in test [2].

With `COc1nn([C@H]2CC[C@H](O)CC2)cc1-c1cnc2[nH]cc([C@H](C)c3c(OC(F)F)ccc(F)c3Cl)c2c1` [Example 100, trans-4-[4-(3-{(1S)-1-[2-chloro-6-(difluoromethoxy)-3-fluorophenyl]ethyl}-1H-pyrrolo[2,3-b]pyridin-5-yl)-3-methoxy-1H-pyrazol-1-yl]cyclohexanol], the figures for the IC50 in test [1] and in test [2] were no more than 0.05 µM and no more than 0.2 µM, respectively.
